Tests used:
[1] = compared to AMXT1501; cited from earlier work
[2] = system: B16F10-sTAC melanoma tumors; assay: B16F10-sTAC melanoma tumor model; conditions: for polyamine levels in tumors (HPLC): FIG. 1D, compared with vehicle-treated mice; for cytokine levels in tumors: FIG. 3, compared to vehicle treated mice; for B16F10-sTAC tumor growth compared to vehicle: Trimer PTI 3 mg/kg i.p. daily and/or 0.25% DFMO in drinking water
Method: FIG. 1A: Mice were subcutaneously injected with 5×10^5 B16F10-sTAC melanoma cells. When tumors were 50-100 mm^3 in size, treatment was initiated with either saline, 0.25% DFMO (w/v) in the drinking water, Trimer PTI (i.p., 3 mg/kg, once a day) or both DFMO and Trimer PTI. […] FIG. 1B: Upon sacrifice, tumors were excised and weighed (mean±SEM). FIG. 1C: Spleen weight was determined upon sacrifice (mean±SEM). FIG. 1D: Polyamine levels were determined in tumors by HPLC and normalized to DNA levels in the tissue extracts (nmol/mg DNA). […] Trimer PTI levels were determined in tumor and skin supernatants by mass spectrometry and normalized to tissue protein concentration (nmol/mg protein). n=5-10 mice per group; *=p≤0.05 and #=p≤0.01 compared to vehicle-treated mice.
Tumor models were established by subcutaneous injections of 5×10^5 B16F10-sTAC cells in C57B16 mice or 5×10^5 CT26.CL25 cells in Balb/c mice. Mice were monitored twice a week for tumor growth. Treatment with 0.25% (w/v) DFMO in the drinking water and the Trimer PTI (3 mg/kg daily by intraperitoneal injection) was initiated when tumors were palpable (50-100 mm^3). For adoptive transfers, spleens were excised and pressed through a nylon filter to obtain a single cell suspension. The resulting suspension was incubated with red cell lysis buffer for 5 minutes to lyse red blood cells. Gr1^+ cells were stained with a PE conjugated antibody and then isolated using anti-PE microbeads (Miltenyi Biotec) as per the manufacturer's instructions. Gr1^+ positive cells were injected into the retro-orbital cavity. Tumor growth was assessed morphometrically using calipers, and tumor volumes were calculated using the formula V (mm^3)=π/6×A×B^2 (A is the larger diameter and B is the smaller diameter).
Upon sacrifice, splenocytes from B16F10-sTAC tumor bearing mice and tumor cell suspensions from CT26.CL25 tumor bearing mice were analyzed for IFN-γ producing cells by enzyme-linked immunosorbent spot (ELISpot) assay. Multiscreen filtration plates (Millipore) were coated with 0.5 μg/mL of purified anti-mouse IFN-γ capture antibody (Biolegend) overnight at 4° C. Single-cell suspensions of splenocytes or tumors were plated at 1×10^6 and 5×10^5 per well respectively. For ELISpot assays with splenocytes from B16F10-sTAC tumor bearing mice, cells were stimulated with the […] (SEQ ID NO: 1) peptide (Anaspec) at […]. […] After 16 hours of stimulation at 37° C., the cells were removed by washing and spots were developed with a biotinylated anti-IFN-γ detection antibody and streptavidin-horseradish peroxidase conjugate followed by NITRO-blue tetrazolium chloride and 5-bromo-4-chloro-3′-indoylphosphate p-toluidine salt substrate (Sigma). Spot numbers were counted, and data were reported as IFN-γ-spot forming cells per 10^6 cells.
Mouse tumor tissues were fixed in 4% paraformaldehyde in PBS overnight and embedded in paraffin. Sections were deparaffinized, hydrated, and then heated in 0.01 mol/L sodium citrate buffer (pH 6.0) in a steamer for 8 minutes. Sections were incubated with the primary antibody (rat monoclonal anti-mouse F4/80 [BioRad MCA497GA]) for 2 hours at room temperature followed by biotinylated secondary and then an avidin HRP complex (Vectastain Elite ABC KIT, Vector Laboratories, INC). Immunoreactive cells were localized by incubating the sections with diaminobenzidine and peroxide and then counterstaining with hematoxylin. Pictures were obtained using a Zeiss Axiophot microscope (Carl Zeiss Inc.) with a digital color camera and corresponding software.
B16F10-sTAC tumors were flash frozen in liquid nitrogen, ground and homogenized in PBS containing 0.5 μM dithiothreitol, 0.5 μM Pefabloc and 8 μg/mL leupeptin. Samples were analyzed for monocyte chemoattractant protein-1 (MCP-1), interleukin-6 (IL-6).

[3] = system: polyamine transport system (PTS); assay: Radiolabeled spermidine transport assay, human melanoma cell lines; type: cell-based; conditions: FIG. 8A, WM983B (BRAF V600E), 1 mM DFMO 40 h
Method: (§1) Polyamine transport in tumor cells was evaluated essentially as described (Kramer, et al. (1993) J. Cell Physiol., 155(2):399-407; Nilsson, et al. (2005) Cancer Cell 7(5):433-444). Radioactive spermidine (Net-522 Spermidine Trihydrochloride, [Terminal Methylenes-^3H(n)]) from Perkin Elmer was used (specific activity: 16.6 Ci/mmol). Cells were plated in 96 well plates and grown to approximately 80% confluence. Half of the cells were treated with 1 mM DFMO for 40 hours. After repeated washing with PBS, ^3H-spermidine was added at 1 μM and incubated for 60 minutes at 37° C. Cells were then washed with cold PBS containing 50 μM spermidine and lysed in 0.1% SDS at 37° C. for 30 minutes with mixing. Cell lysates were then aliquoted for scintillation counting and for protein assay using a mini-BioRad assay. Results were expressed as CPM/g protein.

[4] = system: polyamine transport system (PTS); assay: Radiolabeled spermidine transport assay, murine melanoma cells; type: cell-based
Method: (§2) FIG. 9A: Murine BRAF^V600E YUMM1.7 melanoma cells and BRAF^WT B16F10 melanoma cells were treated with increasing doses of AP. After 72 hours of culture, cell survival was determined via EZQuant™ Cell Quantifying assay. IC50 values were calculated by GraphPad Prism 6. FIG. 9B: Murine BRAF^V600E YUMM1.7 melanoma cells and BRAF^WT B16F10 melanoma cells were treated with increasing doses of AP±1 mM DFMO or with PLX4720. After 72 hours of culture, cell survival was determined via EZQuant™ Cell Quantifying assay. IC50 values were calculated by GraphPad Prism 6. […] Cells were washed with cold PBS containing 50 μM spermidine, and cell lysates were assayed for CPM ^3H-spermidine per mg protein by scintillation counting.
as §1

[5] = system: 1205Lu melanoma cells transduced with JARID1B-promoter-EGFP-reporter; assay: JARID1B-promoter-EGFP reporter in spheroids; type: cell-based, human; conditions: 2-day exposure, 1205Lu grown as spheroids
Excerpt: Treatment with a BRAF inhibitor such as PLX4720 enriches a slow-cycling cancer stem cell-like (CSC) subpopulation of melanoma cells that is characterized by stem cell markers including JARID1B and spheroid formation (Roesch, et al. (2010) Cell 141(4):583-594; Roesch, et al. (2013) Cancer Cell 23(6):811-825). It is thought that cancer stem cell populations exist in a hypoxic microenvironment (Schwab, et al. (2012) Breast Cancer Res., 14(1):R6; Mathieu, et al. (2011) Cancer Res., 71(13):4640-4652; Mohyeldin, et al. (2010) Cell Stem Cell, 7(2):150-161). Endogenous ROS levels are increased in slow cycling JARID1B^high melanoma cells as a result of increased mitochondrial respiration and oxidative phosphorylation (Roesch, et al. (2013) Cancer Cell 23(6):811-825). […] Using 1205Lu melanoma cells stably transduced with a JARID1B-promoter-EGFP-reporter construct (Roesch, et al.

[6] = system: 1205Lu melanoma spheroids; assay: 3D spheroid culture viability (CellTiter-Glo); type: cell-based, human; conditions: FIG. 10, 25 μM each drug, 48 h, 3D spheroids on NCPs
Method: BRAF^V600E mutant 1205Lu melanoma cells were seeded at 1×10^4 cells in each well of the […] NCPs. When spheroids were formed on day 3, the 3D cultures of spheroids were treated with PLX4720 (25 μM) and/or AP (25 μM). 2D monolayer cultures of 1205Lu melanoma cells were also treated with PLX4720 (25 μM) and/or AP (25 μM). After drug treatment for 48 hours, the viability of spheroids and monolayer cultures was assayed using the CellTiter-Glo Luminescent Cell Viability Assay. The percent cell survival in each treatment group was calculated relative to cells treated with medium only under the same conditions. As controls, the growth of cells without drug treatment under each condition was normalized as 100% separately. The means are presented±SD.
The inorganic nanoscale scaffolding NanoCulture plates (NCP) were purchased from SCIVAX. The base of each NCP is constructed with a transparent cyclo-olefin resinous sheet with a nanoscale indented pattern. To form spheroids, 1205Lu human melanoma cells were seeded in 96-well NCPs at 1×10^4 cells/well in MCDB153 (Sigma)/Leibovitz's L-15 (Cellgro) medium (4:1 ratio) supplemented with 2% heat-inactivated fetal calf serum and 2 mM CaCl2 and incubated in a conventional cell incubator at 37° C. in an atmosphere of 5% CO2 and normal O2 levels. […]

[7] = system: BRAF^WT melanoma cells; conditions: WM3451, WM3743, WM3211; read-out: IC50 (cell viability); cited from earlier work
[8] = system: BRAF^V600E YUMM1.7 melanoma cells; assay: Cell viability assay (EZQuant), YUMM1.7; type: cell-based, murine; conditions: FIG. 9B, 72 h
Method: as §2

[9] = system: BRAF-mutant melanoma tumor; assay: BRAF-mutant melanoma tumor in mice treated with PLX4720; type: in vivo; conditions: FIG. 11, PLX4720 alone
Method: FIG. 11 provides a graph of tumor volume in mice over time after treatment with PLX4720 alone or PLX4720 with delayed administration of AP and DFMO.
In addition to the above, the efficacy of AP in vivo was also tested.

[10] = system: BRAF^V600E melanoma cells; conditions: WM983B, WM3734, 1205Lu, WM989, WM88; read-out: IC50 (cell viability); cited from earlier work

| sensitivity to PLX4720 (IC50 compared to B16F10 cells) [8] | Compound | water solubility [1] | spleen weight ([2]; FIG. 1C, Trimer PTI with or without DFMO) | polyamine levels in tumors (HPLC) [2] | accumulation in tumor compared to non-tumor bearing skin (mass spectrometry) ([2]; FIG. 1E, PBT-treated mice) | cytokine levels in tumors [2] | B16F10-sTAC tumor growth compared to vehicle [2] | polyamine transport activity after DFMO treatment [3] | polyamine uptake after DFMO treatment ([4]; B16F10 retrovirally expressing BRAF V600E, 1 mM DFMO) | polyamine uptake after DFMO treatment ([4]; FIG. 9C, B16F10 (BRAF WT), 1 mM DFMO 40 h) | PTS activity after DFMO treatment ([4]; FIG. 9C, YUMM1.7 (BRAF V600E), 1 mM DFMO 40 h) | enrichment of JARID1B-driven GFP expressing cells [5] | cell viability of spheroid cultures [6] | IC50 [7] | BRAF-mutant melanoma tumor volume over time [9] | IC50 [10] |
| --- | --- | --- | --- | --- | --- | --- | --- | --- | --- | --- | --- | --- | --- | --- | --- | --- |
|  | CNCCCCNCCCCNCc1cc(CNCCCCNCCCCNC)cc(CNCCCCNCCCCNC)c1 [Trimer PTI] | more water-soluble | no significant effect | no discernible effect | 30 fold | did not significantly alter | only modestly reduced |  |  |  |  |  |  |  |  |  |
|  | NCCC[C@](N)(C(=O)O)C(F)F [DFMO, α-difluoromethylornithine, reference compound] |  |  | reduced the levels of putrescine |  | did not significantly alter | only modestly reduced | dramatically increased polyamine transport activity | enhance polyamine uptake | no significant induction | marked DFMO-induction of PTS activity |  |  |  |  |  |
| very sensitive | CCCS(=O)(=O)Nc1ccc(F)c(C(=O)c2c[nH]c3ncc(Cl)cc23)c1F [PLX4720, reference compound] |  |  |  |  |  |  |  |  |  |  | 4 fold | more resistant | > 3000 nM | initially quickly regress but then grow back | ≤ 3000 nM |
